Source: patent US20080182798A1, “Novel effectors of dipeptidyl peptidase IV” (priority 1998, published 2008)
Counter-ions that a name gives are not always drawn.

Key:
dipeptidyl peptidase IV = dipeptidyl peptidase IV (Homo sapiens, UniProt P27487); experiment: Action of effectors on the DP IV-catalysed hydrolysis of H-Gly-Pro-pNA; format: biochemical; details: 0.4 mM H-Gly-Pro-pNA, 30° C., pH 7.6, ionic strength 0.125; for remaining activity at 10 µM / % Residual activity of DP IV in the presence of 10 μM effector: 10 μM effector; for remaining activity at 10 µM: read-out: % Residual activity of DP IV in the presence of 10 μM effector; for Ki: read-out: Effector affinity to DP IV: Ki
[1] = system: circulating blood glucose; experiment: Circulating blood glucose after oral administration with synchronous glucose tolerance test; format: in vivo, Wistar rat; details: for Glucose concentration in % L-allo-Ile-thiazolidide-treated: oral 20 μM, within 60 min, % based on normoglycaemic values (control 100)
[2] = biological target: T1, peptide transporter Pep T1 (Homo sapiens, UniProt P46059); experiment: Transport by the peptide transporter Pep T1; format: in vitro ADME; details: in comparison with L-threo-isoleucyl thiazolidide
T1 sequence (P46059 1-708): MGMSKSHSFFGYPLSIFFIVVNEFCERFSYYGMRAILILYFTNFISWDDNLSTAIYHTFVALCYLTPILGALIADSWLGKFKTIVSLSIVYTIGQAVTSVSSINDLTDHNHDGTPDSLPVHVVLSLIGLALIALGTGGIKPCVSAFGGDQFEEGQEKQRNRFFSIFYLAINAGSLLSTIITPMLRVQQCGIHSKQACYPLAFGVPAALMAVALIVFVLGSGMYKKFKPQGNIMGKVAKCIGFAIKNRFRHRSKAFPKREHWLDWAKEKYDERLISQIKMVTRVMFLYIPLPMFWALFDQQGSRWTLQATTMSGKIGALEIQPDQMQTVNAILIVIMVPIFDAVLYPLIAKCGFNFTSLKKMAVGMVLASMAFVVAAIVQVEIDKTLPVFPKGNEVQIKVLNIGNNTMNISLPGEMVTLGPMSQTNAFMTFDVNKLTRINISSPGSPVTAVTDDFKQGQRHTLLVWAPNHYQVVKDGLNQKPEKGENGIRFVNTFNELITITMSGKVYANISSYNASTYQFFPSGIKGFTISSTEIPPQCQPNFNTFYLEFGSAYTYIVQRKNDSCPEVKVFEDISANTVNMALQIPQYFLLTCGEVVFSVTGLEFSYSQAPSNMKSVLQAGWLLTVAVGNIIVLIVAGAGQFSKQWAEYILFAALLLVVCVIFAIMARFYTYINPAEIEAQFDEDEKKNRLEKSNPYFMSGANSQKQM

[3] = Testing the solubility of salts of Ile-Thia in distilled water; format: physicochemical; details: H2Odist.
Method: Testing the Solubility of Salts of Ile-Thia
Addition of 100 μl H2Odist.

dipeptidyl peptidase IV, sequence (P27487 whole entry, species assumed): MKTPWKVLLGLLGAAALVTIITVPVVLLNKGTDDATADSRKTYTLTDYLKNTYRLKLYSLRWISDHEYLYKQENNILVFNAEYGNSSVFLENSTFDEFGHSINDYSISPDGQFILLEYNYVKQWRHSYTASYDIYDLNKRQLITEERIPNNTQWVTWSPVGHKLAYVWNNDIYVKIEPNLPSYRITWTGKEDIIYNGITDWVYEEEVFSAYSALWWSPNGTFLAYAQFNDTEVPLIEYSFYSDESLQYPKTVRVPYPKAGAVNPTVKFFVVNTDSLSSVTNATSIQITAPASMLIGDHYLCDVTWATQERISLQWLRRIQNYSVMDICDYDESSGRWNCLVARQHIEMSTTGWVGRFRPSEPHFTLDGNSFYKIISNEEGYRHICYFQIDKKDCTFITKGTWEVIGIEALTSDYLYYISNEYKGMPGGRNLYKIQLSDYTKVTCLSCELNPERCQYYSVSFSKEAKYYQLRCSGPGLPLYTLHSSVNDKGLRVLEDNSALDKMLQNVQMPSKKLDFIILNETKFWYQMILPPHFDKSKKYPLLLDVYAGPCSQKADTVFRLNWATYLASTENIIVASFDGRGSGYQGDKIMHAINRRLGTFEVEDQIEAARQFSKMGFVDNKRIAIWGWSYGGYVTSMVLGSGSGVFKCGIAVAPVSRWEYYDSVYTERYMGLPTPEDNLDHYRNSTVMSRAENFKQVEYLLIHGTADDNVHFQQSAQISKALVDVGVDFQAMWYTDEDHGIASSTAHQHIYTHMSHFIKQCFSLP

Row | Structure (SMILES) | remaining activity at 10 µM (dipeptidyl peptidase IV) | Ki (dipeptidyl peptidase IV) | further results
1 | NC(=O)CC(N)C(=O)N1CCCC1 (centres unmarked) [H-Asn-pyrrolidide] | 83.1% | 12 µM | –
2 | NC(=O)CC(N)C(=O)N1CCSC1 (centres unmarked) [H-Asn-thiazolidide] | 47.2% | 3.5 µM | –
3 | NC(CC(=O)NO)C(=O)N1CCCC1 (centres unmarked) [H-Asp(NHOH)-pyrrolidide] | 88.2% | 13 µM | –
4 | NC(CC(=O)NO)C(=O)N1CCSC1 (centres unmarked) [H-Asp(NHOH)-thiazolidide] | 54.5% | 8.8 µM | –
5 | NC(CC(=O)O)C(=O)N1CCCC1 (centres unmarked) [H-Asp-pyrrolidide] | 81.6% | 14 µM | –
6 | NC(CC(=O)O)C(=O)N1CCSC1 (centres unmarked) [H-Asp-thiazolidide] | 45.6% | 2.9 µM | –
7 | NC(CCC(=O)NO)C(=O)N1CCCC1 (centres unmarked) [H-Glu(NHOH)-pyrrolidide] | – | 2.8 µM | % Residual activity of DP IV in the presence of 10 μM effector (dipeptidyl peptidase IV): 44.9%
8 | NC(CCC(=O)NO)C(=O)N1CCSC1 (centres unmarked) [H-Glu(NHOH)-thiazolidide] | 36.5% | 1.7 µM | –
9 | NC(CCC(=O)O)C(=O)N1CCSC1 (centres unmarked) [H-Glu-thiazolidide] | 25% | 0.61 µM | –
10 | NC(Cc1c[nH]cn1)C(=O)N1CCCC1 (centres unmarked) [H-His-pyrrolidide] | 49.7% | 3.5 µM | –
11 | NC(Cc1c[nH]cn1)C(=O)N1CCSC1 (centres unmarked) [H-His-thiazolidide] | 35.2% | 1.8 µM | –
12 | CC[C@H](C)[C@H](N)C(=O)N1CC1 [H-Ile-azididide] | – | 3.1 µM | % Residual activity of DP IV in the presence of 10 μM effector (dipeptidyl peptidase IV): 43.8%
13 | CC[C@@H](C)[C@H](N)C(=O)N1CCSC1 [H-L-allo-Ile-thiazolidide, L-allo-isoleucyl thiazolidide] | – | – | Glucose concentration in % L-allo-Ile-thiazolidide-treated ([1]; Wistar rat (diabetes 2b-model, obese)): 73%; Glucose concentration in % L-allo-Ile-thiazolidide-treated ([1]; Wistar rat, normal): 82%; Degree of action with respect to glucose modulation ([1]; in comparison with L-threo-isoleucyl thiazolidide): approximately the same degree of action; Improvement in transport by the peptide transporter Pep T1 [2]: approximately five-fold
14 | CC(C)C(N)C(=O)N1CCSC1 (centres unmarked) [H-Val-thiazolidide] | 13.6% | 0.27 µM | –
15 | CC[C@H](C)[C@H](N)C(=O)N1CCSC1 [L-threo-IT*F, L-threo-isoleucyl thiazolidide fumarate] | – | – | Wettability and decomposition in water [3]: scarcely wettable and does not decompose; Solubility: concentration at complete dissolution ([3]; visual): 2.63%
16 | C[C@H]1O[C@H](O[C@H]2[C@H](O)[C@@H](O)[C@@H](O[C@H]3[C@H](O)[C@@H](O)C(O)O[C@@H]3CO)O[C@@H]2CO)[C@H](O)[C@@H](O)[C@@H]1N[C@H]1C=C(CO)[C@@H](O)[C@H](O)[C@H]1O (some centres unmarked) [acarbose, reference compound] | 100% | > 1000 µM | –
17 | COc1ccc(Cl)cc1C(=O)NCCc1ccc(S(=O)(=O)NC(=O)NC2CCCCC2)cc1 [glibenclamide, reference compound] | 100% | > 1000 µM | –
18 | CN(C)C(=N)N=C(N)N [metformin, reference compound] | 100% | > 1000 µM | –
